Seven compounds from patent US9321722B2, “Bis-indolic derivatives, their uses in particular as antibacterials” (UNIVERSITE JOSEPH FOURIER, priority 2011, dated 2016) can be followed below.

The test system of experiment [1] is S. epidermidis CIP 81.55. Briefly: MIC microdilution (Table I-1). The class given is cell-based, Staphylococcus epidermidis. To be noted: Staphylococcus epidermidis, CIP81, read after 18 hours, read-out: MIC. How it is done: (§1) The microdilution method recommended by the Clinical and Laboratory Standard Institute [M07-A8, Vol. 29, N^o 2] was used. The activity of indolic compounds was tested against 29 bacterial strains belonging to 17 different species and 12 different genera (Staphylococcus, Streptococcus, Enterococcus, Listeria, Bacillus, Haemophilus, Escherichia, Klebsiella, Enterobacter, Serratia, Pseudomonas, and Acinetobacter). Bacterial inocula were prepared in Mueller Hinton broth (MH2, bioMerieux, Marcy L'Etoile, France), supplemented with 10% sheep blood for fastidious species (i.e., Streptococcus pneumoniae and Haemophilus influenzae). They were dispensed in 96 well microtiter plates (5×10^5 CFU/ml of final inoculum). Indolic compounds were added to the wells as to obtain two-fold serial concentrations (0.50-128 mg/L of final concentrations). Plates were incubated at 37° C. in ambient air, or at 37° C. in 5% CO2 enriched atmosphere for fastidious species. […] Drug-free cultures served as growth controls. Cultures receiving gentamicin, ciprofloxacin or cefotaxime served as positive controls.

The test system of experiment [2] is S. epidermidis ATCC 12228. Briefly: MIC microdilution (Table I-1). The format is cell-based, Staphylococcus epidermidis. To be noted: Staphylococcus epidermidis, ATCC12228, read after 18 hours, read-out: MIC. How it is done: as §1
The subject of experiment [3] is S. epidermidis CIP 103627. Briefly: MIC microdilution (Table I-1). To be noted: Staphylococcus epidermidis, CIP103627, read after 18 hours, read-out: MIC. The class given is cell-based, Staphylococcus epidermidis. How it is done: as §1
Experiment [4] has as its system S. pneumoniae ATCC 49619. Briefly: MIC microdilution (Table I-1). The class given is cell-based. To be noted: Streptococcus pneumoniae, ATCC49619, read after 18 hours. The gist of the method:
(§2)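 CLSI broth microdilution in Mueller Hinton broth, final inoculum 5×10^5 CFU/ml. Compounds tested as two-fold serial dilutions, 0.50–128 mg/L final, plates incubated at 37 °C in ambient air; MIC read as lowest concentration inhibiting growth.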

For experiment [5], the system named is Listeria innocua CIP 80.11. The experiment can be described thus: MIC microdilution (Table I-1). To be noted: CIP80, read after 18 hours, read-out: MIC. The class given is cell-based. The gist of the method:
as §2

Experiment [6] deals with S. agalactiae (group B) ATCC 12400. Briefly: MIC microdilution (Table I-1). The class given is cell-based. To be noted: Streptococcus agalactiae, ATCC12400, read after 18 hours, read-out: MIC. In outline: as §2
The test system of experiment [7] is Serratia marcescens CIP 103551. Briefly: MIC microdilution (Table I-1). The format is cell-based. To be noted: CIP103551, read after 18 hours. The gist of the method: as §2
Experiment [8] concerns HCT116 (human colon tumor). The experiment can be described thus: In vitro cytotoxicity. The format is cell-based. To be noted: for inhibition at 10 µM: HCT-116, HCT116, 10^−5 M, read-out: % of cellular growth inhibition; for inhibition at 1 µM: HCT-116, HCT116, 10^−6 M, read-out: % of cellular growth inhibition (converted). How it is done: (§3) In vitro cytotoxicity was assayed on three cell lines—KB (human mouth carcinoma), MCR5 (human lung fibroblast) and HCT116 (human colon tumor). Results are presented in table III as % of cellular growth inhibition in presence of 10^−5 M and 10^−6 M of the tested bis-indolic derivatives.

Experiment [9] concerns MRC5 (human lung fibroblast). The experiment can be described thus: In vitro cytotoxicity. The class given is cell-based. To be noted: for inhibition at 10 µM: MRC5, 10^−5 M, read-out: % of cellular growth inhibition; for inhibition at 1 µM: MRC5, 10^−6 M, read-out: % of cellular growth inhibition (converted). As to the method:
as §3

Experiment [10] concerns KB (human mouth carcinoma). Briefly: In vitro cytotoxicity. The format is cell-based. To be noted: KB; for inhibition at 10 µM: 10^−5 M, read-out: % of cellular growth inhibition; for inhibition at 1 µM: 10^−6 M, read-out: % of cellular growth inhibition (converted). As to the method:
as §3

Experiment [11] concerns S. pneumoniae ATCC 6303. The experiment can be described thus: MIC microdilution (Table I-1). The format is cell-based, Streptococcus pneumoniae. To be noted: Streptococcus pneumoniae, ATCC6303, read after 18 hours, read-out: MIC. How it is done: as §1
Experiment [12] relates to Staphylococcus aureus K2378 (overexpresses the efflux pump NorA from a multicopy plasmid). Briefly: Efflux pump inhibition assay with sub-inhibitory ciprofloxacin. To be noted: in the presence of ciprofloxacin 0.25 mg/L (MIC/8). The class given is cell-based. As to the method: The efflux pump inhibition potential of the bis-indolic derivatives was tested using two steps. In a first step, the intrinsic antibacterial activity of the compounds was assayed against the following strains:
The following experimental protocol was used: indolic derivatives (initially solubilised in DMSO at 10 mg/mL) were dispensed in a 96-wells microplate by two fold serial dilutions in Muller-Hinton medium (MH, Bio Rad) using a Biomek 2000 (Beckman) handling robot. 100 μL of the bacterial inoculum (an overnight culture at 37° C. in 5 mL MH diluted 100-fold) was then added in each well. The total volume was 200 μL in each well and the final bacteria concentration 10^6 CFU/mL (CFU: colony forming unit). The highest final indolic derivative concentration was 128 mg/L. Growth was assayed with a microplate reader by monitoring absorption at 620 nm after 1, 2, 5, 7 and 24 h incubation at 37° C. In addition, the plates were read visually after 24 hours incubation. Cultures containing 5 μL DMSO were used as growth controls. In addition, two controls containing a sub-inhibitory or a inhibitory antibiotic concentration for the tested strain were performed. The antibiotics used were ampicillin (0.5 and 32 μg/mL) for E. coli, kanamycin (0.5 and 16 μg/mL) for S. aureus ATCC 25923, ciprofloxacin (4 and 64 mg/L) for S. aureus 1199B, ciprofloxacin (0.5 and 2 mg/L) for S. aureus K2378. All experiments were performed in duplicate.
Efflux pump inhibition assays were then performed against resistant Staphylococcus aureus strains SA 1199B and SA K2378 for bis-indolic derivatives. […] The minimal inhibitory concentration (MIC) of the bis-indolic compound allowing a complete inhibition of the bacterial growth in the presence of ciprofloxacin was determined.

SMILES strings stand for the structures. ≈ marks a conversion by molar mass, not a printed value.

Take `CC(C)(C)OC(=O)NCC(NC(=O)C(=O)c1c[nH]c2ccccc12)c1c[nH]c2ccccc12` (centres unmarked) [Compound 2, tert-Butyl(2-(2-(1H-indol-3-yl)-2-oxoacetamido)-2-(1H-indol-3-yl)ethyl)carbamate]: the MIC in experiment [1], in experiment [2], in experiment [3], in [4], in [5] and in [6] was greater than 128 µg/mL each time. For the same compound, the MIC in experiment [7] and in experiment [11] was greater than 128 µg/mL each time. The results for the inhibition at 10 µM in [8], in [9] and in experiment [10] were 96 ± 1%, 100 ± 2% and 97 ± 1%, respectively. The inhibition at 1 µM was 53% in experiment [8], 10 ± 0.5% in [9] and 33% in [10].
For the compound `CC(C)(C)OC(=O)NCC(NC(=O)C(=O)c1c[nH]c2ccc(Br)cc12)c1c[nH]c2ccc(Br)cc12` (centres unmarked) [Compound 4, tert-Butyl(2-(5-bromo-1H-indol-3-yl)-2-(2-(5-bromo-1H-indol-3-yl)-2-oxoacetamido)ethyl) carbamate], the minimal inhibitory concentration (MIC) in experiment [1] is 1.6 µg/mL (≈ 2.65 µM); in [2], 0.8 µg/mL (≈ 1.32 µM); in experiment [3], 1.6 µg/mL (≈ 2.65 µM); in [7] it was greater than 128 µg/mL. Besides, the inhibition at 10 µM in experiment [8] is 58 ± 4%; in experiment [9] it was 51 ± 9%; in experiment [10], 76 ± 5%. The inhibition at 1 µM in experiment [8], in [9] and in [10] was 0% each time.
Regarding `CC(NC(=O)C(=O)c1c[nH]c2ccc(Br)cc12)c1c[nH]c2ccc(Br)cc12` (centres unmarked) [Compound 5, 2-(5-Bromo-1H-indol-3-yl)-N-(1-(5-bromo-1H-indol-3-yl)ethyl)-2-oxoacetamide], the MIC in experiment [1] amounted to 2 µg/mL (≈ 4.09 µM); in experiment [2], 2 µg/mL (≈ 4.09 µM); in experiment [3], 2 µg/mL (≈ 4.09 µM); in [4], 32 µg/mL (≈ 65.4 µM); in [5], 64 µg/mL (≈ 131 µM); in experiment [6], 64 µg/mL (≈ 131 µM). Besides, the MIC is greater than 128 µg/mL in experiment [7] and 32 µg/mL (≈ 65.4 µM) in [11]. Further, the inhibition at 10 µM in experiment [8] worked out at 80 ± 3%; in experiment [9], 85 ± 2%; in [10] it was 91 ± 3%. The inhibition at 1 µM in experiment [8] is 10%; in experiment [9], 6%; in experiment [10] it was 0%.
For `O=C(C(=O)N1CCCCC1c1c[nH]c2ccccc12)c1c[nH]c2ccccc12` (centres unmarked) [Compound 6a, 1-(2-(1H-Indol-3-yl)piperidin-1-yl)-2-(1H-indol-3-yl)ethane-1,2-dione], in experiment [12], the “CMI, mg/L (Ciprofloxacin concentration, mg/L)” value (“CMI, mg/L” below) is 8 (0.25) mg/L. The MIC in experiment [1], in experiment [2], in [3], in experiment [4], in experiment [5] and in experiment [6] was greater than 128 µg/mL in each case. In addition, the MIC in [7] and in [11] was greater than 128 µg/mL in each case. The figures for the inhibition at 10 µM in experiment [8], in [9] and in experiment [10] were 37 ± 6%, 28 ± 9% and 20 ± 13%, respectively. Moreover, the inhibition at 1 µM in [8], in experiment [9] and in experiment [10] was 0% each time.
For the compound `O=C(C(=O)N1CCOCC1c1c[nH]c2ccccc12)c1c[nH]c2ccccc12` (centres unmarked) [Compound 6b, 1-(3-(1H-Indol-3-yl)morpholino)-2-(1H-indol-3-yl)ethane-1,2-dione], the “CMI, mg/L” value in experiment [12] is given as 16 (0.25) mg/L. Also, the minimum inhibitory concentration (MIC) in [1], in experiment [2], in experiment [3], in experiment [4], in experiment [5] and in experiment [6] was greater than 128 µg/mL each time. Also, the MIC in [7] and in experiment [11] was greater than 128 µg/mL throughout. The inhibition at 10 µM was 21 ± 10% in [8], 15 ± 11% in experiment [9] and 9 ± 4% in [10]. Further, the inhibition at 1 µM in [8] is 2%; in experiment [9], 0%; in experiment [10], 0%.
On to `CC(C)(C)OC(=O)N1CCN(C(=O)C(=O)c2c[nH]c3ccccc23)C(c2c[nH]c3ccccc23)C1` (centres unmarked) [Compound 6c, tert-Butyl 4-(2-(1H-indol-3-yl)-2-oxoacetyl)-3-(1H-indol-3-yl)piperazine-1-carboxylate], for which, in experiment [12], the “CMI, mg/L” value was 16 (0.25) mg/L. Also, the MIC in experiment [1], in [2], in experiment [3], in experiment [4], in [5] and in experiment [6] was greater than 128 µg/mL each time. Moreover, the minimal inhibitory concentration (MIC) in [7] and in [11] was greater than 128 µg/mL each time. The inhibition at 10 µM in experiment [8] amounted to 53 ± 3%; in experiment [9] it was 6 ± 16%; in experiment [10], 66 ± 8%. Further, the figures for the inhibition at 1 µM in experiment [8], in [9] and in experiment [10] were 8%, 0% and 0%, respectively.
With `O=C(C(=O)N1CCCCC1c1c[nH]c2ccc(Br)cc12)c1c[nH]c2ccc(Br)cc12` (centres unmarked) [Compound 6d, 1-(5-Bromo-1H-indol-3-yl)-2-(2-(5-bromo-1H-indol-3-yl)piperidin-1-yl)ethane-1,2-dione], in experiment [12], the “CMI, mg/L” value is listed as 8 (0.25) mg/L. Besides, the MIC in [1], in [2], in experiment [3], in [4], in [5] and in experiment [6] was greater than 128 µg/mL each time. For the same compound, the MIC in experiment [7] and in [11] was greater than 128 µg/mL throughout. For the same compound, the inhibition at 10 µM is 41 ± 4% in [8], 0% in experiment [9] and 53 ± 5% in experiment [10]. Besides, the figures for the inhibition at 1 µM in experiment [8], in [9] and in experiment [10] were 4%, 0% and 0%, respectively.
